In ChEMBL document CHEMBL1201862, “PubChem BioAssay data set” (2004):
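48-hour exposure; five concentrations; linearly interpolated endpoints. GI50: concentration for 50% inhibition of growth.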 The source made the active and inactive calls. Cut-off read from the data, not from the text of the source: active = GI50 up to about 1.1 µM and inactive = higher.

Experiments:
Assay in all cases: NCI tumour cell line growth inhibition, 48 h
[1] = tested on: CCRF-CEM
[2] = tested on: OVCAR-8
[3] = tested on: HOP-92
[4] = tested on: HCC 2998
[5] = tested on: A498
[6] = tested on: SF-539
[7] = tested on: OVCAR-4
[8] = tested on: MDA-MB-435
[9] = tested on: DU-145
[10] = tested on: HCT-116
[11] = tested on: SK-MEL-5
[12] = tested on: NCI-H522
[13] = tested on: 786-0
[14] = tested on: HCT-15
[15] = tested on: SF-295
[16] = tested on: LOX IMVI
[17] = tested on: MCF7
[18] = tested on: MOLT-4
[19] = tested on: OVCAR-5
[20] = tested on: A549

| SMILES | GI50 [1] | GI50 [2] | GI50 [3] | GI50 [4] | GI50 [5] | GI50 [6] | GI50 [7] | GI50 [8] | GI50 [9] | GI50 [10] | GI50 [11] | GI50 [12] | GI50 [13] | GI50 [14] [µM] | GI50 [15] | GI50 [16] | GI50 [17] | GI50 [18] | GI50 [19] | GI50 [20] |
| --- | --- | --- | --- | --- | --- | --- | --- | --- | --- | --- | --- | --- | --- | --- | --- | --- | --- | --- | --- | --- |
| COC(=O)C(=O)C(C(=O)C(=O)Nc1cc(C)ccc1C)c1nc2ccccc2nc1O (stereo not given) | 36.1 µM (inactive) | > 100 µM (inactive) | 26.7 µM (inactive) | > 100 µM (inactive) | > 100 µM (inactive) | > 100 µM (inactive) | > 100 µM (inactive) | > 100 µM (inactive) | > 100 µM (inactive) | > 100 µM (inactive) | > 100 µM (inactive) | > 100 µM (inactive) | > 100 µM (inactive) | > 100 | > 100 µM (inactive) | > 100 µM (inactive) | > 100 µM (inactive) | 71.3 µM (inactive) | > 100 µM (inactive) | 85.3 µM (inactive) |
| COC(=O)c1ccccc1C1CN=NC12Cc1ccc3c(c1C2=O)CCC3 (stereo not given) | 19.3 µM (inactive) | 94.4 µM (inactive) | 23.1 µM (inactive) | > 100 µM (inactive) | 55.2 µM (inactive) | > 100 µM (inactive) | > 100 µM (inactive) | > 100 µM (inactive) | > 100 µM (inactive) | 39.3 µM (inactive) | 17.4 µM (inactive) | 6.55 µM (inactive) | 43.4 µM (inactive) | > 100 | 70.6 µM (inactive) | 9.04 µM (inactive) | 34.9 µM (inactive) | 12.6 µM (inactive) | > 100 µM (inactive) | > 100 µM (inactive) |
| COc1cc(S(=O)(=O)Nc2ccc(-c3csc(N4C(=O)CSC4c4ccccc4)n3)cc2)ccc1Cl (stereo not given) | 34.2 µM (inactive) | > 100 µM (inactive) | 20.6 µM (inactive) | 20.4 µM (inactive) | 0.116 µM (active) | 80.7 µM (inactive) | 29.9 µM (inactive) | 43.1 µM (inactive) | > 100 µM (inactive) | 54 µM (inactive) | 92.9 µM (inactive) | 34.4 µM (inactive) | 76.2 µM (inactive) | > 100 | 96.6 µM (inactive) | 30.5 µM (inactive) | 22.6 µM (inactive) | 25.6 µM (inactive) | > 100 µM (inactive) | 0.785 µM (active) |
| N#CC1(O)CCCCCCCCCCC1 | > 100 µM (inactive) | > 100 µM (inactive) | > 100 µM (inactive) | > 100 µM (inactive) | > 100 µM (inactive) | > 100 µM (inactive) | > 100 µM (inactive) | > 100 µM (inactive) | > 100 µM (inactive) | > 100 µM (inactive) | > 100 µM (inactive) | 48.8 µM (inactive) | > 100 µM (inactive) | > 100 | > 100 µM (inactive) | > 100 µM (inactive) | > 100 µM (inactive) | > 100 µM (inactive) | > 100 µM (inactive) | > 100 µM (inactive) |
| CCn1c(SCc2nnc(Nc3ccccc3)s2)nc2ccccc2c1=O | 47.6 µM (inactive) | 2.02 µM (inactive) | 2.57 µM (inactive) | 6.68 µM (inactive) | 1.67 µM (inactive) | 3.27 µM (inactive) | 1.82 µM (inactive) | 10.3 µM (inactive) | 9.1 µM (inactive) | 1.95 µM (inactive) | 8.15 µM (inactive) | 2.09 µM (inactive) | 2.02 µM (inactive) | 20.7 | 2.52 µM (inactive) | 5.02 µM (inactive) | 9.93 µM (inactive) | 42.6 µM (inactive) | 6.14 µM (inactive) | 3.67 µM (inactive) |
| CCOC(=O)CCC(NC(=O)Cc1ccc(Nc2nc3ccccc3nc2-c2ccccc2)cc1)C(=O)OCC (stereo not given) | > 100 µM (inactive) | 25.2 µM (inactive) | 18.8 µM (inactive) | > 100 µM (inactive) | 37 µM (inactive) | 20 µM (inactive) | 6.79 µM (inactive) | > 100 µM (inactive) | > 100 µM (inactive) | > 100 µM (inactive) | > 100 µM (inactive) | 20.7 µM (inactive) | 7.83 µM (inactive) | > 100 | 16.1 µM (inactive) | > 100 µM (inactive) | > 100 µM (inactive) | > 100 µM (inactive) | 93.8 µM (inactive) | 79.6 µM (inactive) |
| CC(N)(CC(O)(C(F)(F)Cl)C(F)(F)Cl)C(=O)O (stereo not given) | > 10 µM (inactive) | > 10 µM (inactive) | > 10 µM (inactive) | > 10 µM (inactive) | > 10 µM (inactive) | > 10 µM (inactive) | > 10 µM (inactive) | > 10 µM (inactive) | > 10 µM (inactive) | > 10 µM (inactive) | > 10 µM (inactive) | > 10 µM (inactive) | > 10 µM (inactive) | > 10 | > 10 µM (inactive) | > 10 µM (inactive) | > 10 µM (inactive) | > 10 µM (inactive) | > 10 µM (inactive) | > 10 µM (inactive) |
| CC(C)NC(=O)OCc1c(COC(=O)NC(C)C)c(-c2cc[n+](COC(=O)C3CC3)cc2)n2c1CCC2 | > 100 µM (inactive) | > 100 µM (inactive) | > 100 µM (inactive) | > 100 µM (inactive) | 79.3 µM (inactive) | 42.2 µM (inactive) | > 100 µM (inactive) | > 100 µM (inactive) | > 100 µM (inactive) | > 100 µM (inactive) | > 100 µM (inactive) | > 100 µM (inactive) | > 100 µM (inactive) | > 100 | > 100 µM (inactive) | > 100 µM (inactive) | > 100 µM (inactive) | > 100 µM (inactive) | > 100 µM (inactive) | > 100 µM (inactive) |
| Nc1ccc2c(c1)C(=O)N1CCC[C@H]1C(=O)N2 | 1.38 µM (inactive) | > 100 µM (inactive) | > 100 µM (inactive) | > 100 µM (inactive) | > 100 µM (inactive) | > 100 µM (inactive) | > 100 µM (inactive) | > 100 µM (inactive) | > 100 µM (inactive) | > 100 µM (inactive) | > 100 µM (inactive) | > 100 µM (inactive) | > 100 µM (inactive) | > 100 | > 100 µM (inactive) | > 100 µM (inactive) | > 100 µM (inactive) | > 100 µM (inactive) | > 100 µM (inactive) | > 100 µM (inactive) |
| CC(=O)OCC1OC(n2c(C#N)cc(=O)[nH]c2=O)CC1OC(C)=O (stereo not given) | > 100 µM (inactive) | > 100 µM (inactive) | > 100 µM (inactive) | > 10 µM (inactive) | > 100 µM (inactive) | > 100 µM (inactive) | > 100 µM (inactive) | > 100 µM (inactive) | > 100 µM (inactive) | > 100 µM (inactive) | > 100 µM (inactive) | > 100 µM (inactive) | > 100 µM (inactive) | > 100 | > 100 µM (inactive) | > 100 µM (inactive) | > 100 µM (inactive) | > 100 µM (inactive) | > 100 µM (inactive) | > 100 µM (inactive) |
| O=C(O)c1ccccc1CC(Cc1ccc2c(c1)CCC2)C(=O)O (stereo not given) | > 100 µM (inactive) | > 100 µM (inactive) | > 100 µM (inactive) | > 100 µM (inactive) | > 100 µM (inactive) | > 100 µM (inactive) | > 100 µM (inactive) | > 100 µM (inactive) | > 100 µM (inactive) | > 100 µM (inactive) | > 100 µM (inactive) | > 100 µM (inactive) | > 100 µM (inactive) | > 100 | > 100 µM (inactive) | > 100 µM (inactive) | > 100 µM (inactive) | > 100 µM (inactive) | > 100 µM (inactive) | > 100 µM (inactive) |
| O=C(Nc1nn(C(=O)c2cccnc2)c(=O)s1)c1ccc(Cl)cc1 | 34 µM (inactive) | > 100 µM (inactive) | 61.5 µM (inactive) | > 100 µM (inactive) | > 100 µM (inactive) | 29.4 µM (inactive) | 84.7 µM (inactive) | > 100 µM (inactive) | 85.9 µM (inactive) | 84.5 µM (inactive) | 31.4 µM (inactive) | 21.7 µM (inactive) | > 100 µM (inactive) | 80.4 | 46.3 µM (inactive) | > 100 µM (inactive) | 77.3 µM (inactive) | 28.1 µM (inactive) | > 100 µM (inactive) | 99.8 µM (inactive) |
| N=C(N)NCCN1CCCCCc2ccccc21 | > 10 µM (inactive) | > 10 µM (inactive) | 5.24 µM (inactive) | > 10 µM (inactive) | > 10 µM (inactive) | > 10 µM (inactive) | > 10 µM (inactive) | > 10 µM (inactive) | > 10 µM (inactive) | > 10 µM (inactive) | > 10 µM (inactive) | > 10 µM (inactive) | > 10 µM (inactive) | > 10 | > 10 µM (inactive) | > 10 µM (inactive) | > 10 µM (inactive) | > 10 µM (inactive) | > 10 µM (inactive) | > 10 µM (inactive) |
| Cc1ccc(N2C(N)=C(C#N)C(C#N)(C#N)C2c2ccccc2)cc1 (stereo not given) | 3 µM (inactive) | 20 µM (inactive) | 7.78 µM (inactive) | 13 µM (inactive) | 17 µM (inactive) | 14.2 µM (inactive) | 13.4 µM (inactive) | 4.03 µM (inactive) | 14.9 µM (inactive) | 3.79 µM (inactive) | 8.63 µM (inactive) | 5.42 µM (inactive) | 14.2 µM (inactive) | 6.71 | 18.9 µM (inactive) | 11.5 µM (inactive) | 4.95 µM (inactive) | 2.31 µM (inactive) | 15.5 µM (inactive) | 16.6 µM (inactive) |
